Here are results for 3 compounds from PMC7666069 (Journal of medicinal chemistry, 2020).

One data set deals with CB1 receptor. The note with it: cited from earlier work.
Another data set deals with CB2 receptor. The note with it: cited from earlier work.
The target in a further data set is T1, 5-HT2C (Homo sapiens, UniProt P28335).
T1 sequence (P28335 33-458): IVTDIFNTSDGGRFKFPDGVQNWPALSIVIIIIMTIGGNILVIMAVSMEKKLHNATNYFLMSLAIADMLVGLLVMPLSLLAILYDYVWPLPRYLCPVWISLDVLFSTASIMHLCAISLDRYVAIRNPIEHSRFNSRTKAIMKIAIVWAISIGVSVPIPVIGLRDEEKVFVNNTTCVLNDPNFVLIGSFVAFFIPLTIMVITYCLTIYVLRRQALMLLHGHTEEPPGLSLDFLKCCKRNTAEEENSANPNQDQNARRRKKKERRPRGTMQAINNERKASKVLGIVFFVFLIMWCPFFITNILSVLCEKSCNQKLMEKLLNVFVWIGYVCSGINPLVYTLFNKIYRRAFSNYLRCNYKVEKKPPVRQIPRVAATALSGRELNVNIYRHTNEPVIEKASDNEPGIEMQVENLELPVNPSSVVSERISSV
The data set is described as follows: PDSP receptor profiling. The data set is classed as binding.

In another data set the target is MOR (Homo sapiens, UniProt P35372). Kind of data set: PDSP receptor profiling. In kind it is binding.
MOR, sequence (P35372 whole entry): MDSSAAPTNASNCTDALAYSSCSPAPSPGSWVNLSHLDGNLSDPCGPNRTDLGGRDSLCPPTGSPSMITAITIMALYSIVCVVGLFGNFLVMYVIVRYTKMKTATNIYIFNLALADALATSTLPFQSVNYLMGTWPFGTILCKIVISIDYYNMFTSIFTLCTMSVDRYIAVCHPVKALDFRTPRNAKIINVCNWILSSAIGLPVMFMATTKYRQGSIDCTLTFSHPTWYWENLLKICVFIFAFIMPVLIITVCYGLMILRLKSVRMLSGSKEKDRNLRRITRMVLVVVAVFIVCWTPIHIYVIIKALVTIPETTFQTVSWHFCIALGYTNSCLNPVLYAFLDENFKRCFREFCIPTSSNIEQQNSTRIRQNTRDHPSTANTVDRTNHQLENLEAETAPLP
Another data set concerns the target KOR (Homo sapiens, UniProt P41145). Kind of data set: PDSP receptor profiling. The data set is classed as binding.
The target in a further data set is D1 (Homo sapiens, UniProt P21728). The data set is described as follows: PDSP receptor profiling. In kind it is binding.
D1, sequence (P21728 whole entry): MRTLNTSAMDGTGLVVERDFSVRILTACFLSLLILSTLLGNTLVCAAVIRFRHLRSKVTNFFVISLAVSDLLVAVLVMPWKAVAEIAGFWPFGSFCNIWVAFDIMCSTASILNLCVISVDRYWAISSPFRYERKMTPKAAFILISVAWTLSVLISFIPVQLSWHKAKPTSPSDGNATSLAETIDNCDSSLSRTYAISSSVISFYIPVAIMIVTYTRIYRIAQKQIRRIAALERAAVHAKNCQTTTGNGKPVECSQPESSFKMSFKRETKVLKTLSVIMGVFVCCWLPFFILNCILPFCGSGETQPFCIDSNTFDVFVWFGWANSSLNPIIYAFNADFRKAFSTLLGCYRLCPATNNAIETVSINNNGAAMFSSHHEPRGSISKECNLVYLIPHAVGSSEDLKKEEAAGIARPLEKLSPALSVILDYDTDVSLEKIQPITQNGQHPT
In a further data set the target is H3 (Homo sapiens, UniProt Q9Y5N1). Kind of data set: PDSP receptor profiling. The data set is classed as binding.
H3, sequence (Q9Y5N1 whole entry): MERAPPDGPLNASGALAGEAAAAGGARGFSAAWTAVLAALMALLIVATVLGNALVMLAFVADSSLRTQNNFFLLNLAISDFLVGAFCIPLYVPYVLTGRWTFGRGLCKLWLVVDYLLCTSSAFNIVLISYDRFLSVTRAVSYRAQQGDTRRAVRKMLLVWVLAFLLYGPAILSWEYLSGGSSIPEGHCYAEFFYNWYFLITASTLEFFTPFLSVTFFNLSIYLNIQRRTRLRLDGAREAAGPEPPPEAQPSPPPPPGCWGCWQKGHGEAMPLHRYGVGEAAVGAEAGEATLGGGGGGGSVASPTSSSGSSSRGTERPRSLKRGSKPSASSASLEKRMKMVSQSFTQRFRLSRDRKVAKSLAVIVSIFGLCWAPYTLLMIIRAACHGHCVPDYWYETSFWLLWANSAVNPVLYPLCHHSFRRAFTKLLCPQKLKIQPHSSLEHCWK
For the next data set, the target named is T2, ɑ2b (Homo sapiens, UniProt P18089).
T2 sequence (P18089 1-450): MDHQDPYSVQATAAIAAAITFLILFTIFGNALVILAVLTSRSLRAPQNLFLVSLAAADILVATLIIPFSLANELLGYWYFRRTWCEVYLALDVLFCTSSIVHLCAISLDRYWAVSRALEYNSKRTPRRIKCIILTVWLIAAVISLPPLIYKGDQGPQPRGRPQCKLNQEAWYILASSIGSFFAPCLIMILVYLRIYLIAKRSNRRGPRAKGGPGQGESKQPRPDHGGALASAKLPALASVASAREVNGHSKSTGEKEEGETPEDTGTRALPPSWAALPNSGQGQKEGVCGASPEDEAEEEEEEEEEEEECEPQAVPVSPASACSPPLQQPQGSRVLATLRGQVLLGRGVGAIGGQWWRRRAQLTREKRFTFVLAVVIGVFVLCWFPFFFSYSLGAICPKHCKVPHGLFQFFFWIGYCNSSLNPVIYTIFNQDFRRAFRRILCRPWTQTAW
Kind of data set: PDSP receptor profiling. The data set is classed as binding.

The target in a further data set is T3, σ2 (Rattus norvegicus, UniProt Q5U3Y7).
T3 sequence (Q5U3Y7 1-176): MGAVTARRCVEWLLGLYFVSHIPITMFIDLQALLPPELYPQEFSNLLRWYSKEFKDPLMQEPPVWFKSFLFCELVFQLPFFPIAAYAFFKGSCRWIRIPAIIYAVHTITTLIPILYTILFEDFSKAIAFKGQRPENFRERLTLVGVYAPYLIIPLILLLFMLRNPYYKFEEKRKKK
The data set is described as follows: PDSP receptor profiling. The data set is classed as binding.

For a further data set, the target named is T4, ɑ2C (Homo sapiens, UniProt P18825).
T4 sequence (P18825 1-462): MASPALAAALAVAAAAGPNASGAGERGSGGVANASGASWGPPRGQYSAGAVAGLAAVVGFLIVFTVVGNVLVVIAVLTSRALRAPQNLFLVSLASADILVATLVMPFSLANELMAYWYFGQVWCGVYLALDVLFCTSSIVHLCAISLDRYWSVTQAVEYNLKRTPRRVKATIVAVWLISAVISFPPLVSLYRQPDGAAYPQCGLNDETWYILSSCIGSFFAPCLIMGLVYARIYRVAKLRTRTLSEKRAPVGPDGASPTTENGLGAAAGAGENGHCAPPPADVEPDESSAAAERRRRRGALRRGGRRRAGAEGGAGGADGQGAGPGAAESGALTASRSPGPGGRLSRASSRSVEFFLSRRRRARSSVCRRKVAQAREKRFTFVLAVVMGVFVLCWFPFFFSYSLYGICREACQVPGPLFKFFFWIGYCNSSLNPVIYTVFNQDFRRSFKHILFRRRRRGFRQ
The data set is described as follows: PDSP receptor profiling. The data set is classed as binding.

A further data set has as its target DOR (Homo sapiens, UniProt P41143). Kind of data set: PDSP receptor profiling. The data set is classed as binding.
A further data set has as its target AmpC β-lactamase (Escherichia coli, UniProt P00811). Kind of data set: AmpC colloidal aggregation counter screen. The note with it: low micromolar concentrations; with/without detergent. The data set is classed as biochemical. A general note: A counterscreen serves to expose hits that act by an unwanted route or on another target.
For data set [1], the system named is malate dehydrogenase (MDH). Kind of data set: MDH orthogonal aggregation counter screen. In kind it is biochemical. The note with it: 33 or 100 μM; presence or absence of 0.01% Triton X-100.
The nature of data set [2]: Colloidal aggregate detection by dynamic light scattering. The note with it: critical aggregation concentration can vary several-fold with conditions. In kind it is physicochemical.
For data set [3] the following is noted: cited from earlier work.
In the next data set the test system is ion channels. The note with it: membrane pressure and direct binding; cited from earlier work.
The conditions of data set [4]: cited from earlier work; for apparent plasma clearance (CL'): oromucosal spray.
For data set [5] the following is noted: room temperature; air oxidation to cannabidiol hydroxyquinone; cited from earlier work.
The target in a further data set is 5-HT1A receptor. The note with it: displacement of agonist [3H]-8-OH-DPAT; cited from earlier work.
The next data set deals with mice. The note with it: oral single 246–2460 mg/kg or 61.5–615 mg/kg for 10 days; cited from earlier work.
The conditions of data set [6]: patients with schizophrenia, 800 mg/day, not placebo-controlled; cited from earlier work.

Where two headings read alike, the source gives them in different places.

AmpC β-lactamase, sequence (P00811 20-377): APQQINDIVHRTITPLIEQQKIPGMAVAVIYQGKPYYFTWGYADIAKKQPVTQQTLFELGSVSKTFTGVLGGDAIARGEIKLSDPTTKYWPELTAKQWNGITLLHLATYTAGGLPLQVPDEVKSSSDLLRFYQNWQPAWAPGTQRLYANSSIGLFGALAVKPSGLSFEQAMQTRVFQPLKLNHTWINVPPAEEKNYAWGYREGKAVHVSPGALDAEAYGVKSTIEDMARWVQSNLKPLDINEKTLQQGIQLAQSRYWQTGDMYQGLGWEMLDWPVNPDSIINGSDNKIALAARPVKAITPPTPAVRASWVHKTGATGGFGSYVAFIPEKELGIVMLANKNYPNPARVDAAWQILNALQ
KOR, sequence (P41145 whole entry): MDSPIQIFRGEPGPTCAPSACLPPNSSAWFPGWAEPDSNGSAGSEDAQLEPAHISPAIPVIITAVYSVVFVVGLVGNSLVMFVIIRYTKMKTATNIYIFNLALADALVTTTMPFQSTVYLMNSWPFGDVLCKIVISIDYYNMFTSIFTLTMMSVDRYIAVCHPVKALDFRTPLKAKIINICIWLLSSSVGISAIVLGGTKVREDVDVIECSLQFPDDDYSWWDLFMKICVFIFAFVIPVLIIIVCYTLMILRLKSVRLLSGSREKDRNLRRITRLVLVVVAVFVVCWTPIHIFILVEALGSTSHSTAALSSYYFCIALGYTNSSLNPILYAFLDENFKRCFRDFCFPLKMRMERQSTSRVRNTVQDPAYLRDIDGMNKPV
DOR, sequence (P41143 whole entry): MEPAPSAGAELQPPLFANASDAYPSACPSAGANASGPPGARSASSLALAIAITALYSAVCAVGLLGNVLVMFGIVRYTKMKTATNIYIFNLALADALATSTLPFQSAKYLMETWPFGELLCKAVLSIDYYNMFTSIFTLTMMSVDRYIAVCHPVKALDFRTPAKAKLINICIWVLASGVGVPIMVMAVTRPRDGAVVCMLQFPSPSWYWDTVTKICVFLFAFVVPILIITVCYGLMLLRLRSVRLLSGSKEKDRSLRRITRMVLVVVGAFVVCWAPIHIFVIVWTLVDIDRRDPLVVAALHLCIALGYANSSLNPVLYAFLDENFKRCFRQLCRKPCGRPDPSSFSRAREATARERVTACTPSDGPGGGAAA

With `C=C(C)[C@H]1CCC(C)=C[C@@H]1c1c(O)cc(CCCCC)cc1O` [(+)-CBD], the CB1 receptor affinity entry with CB1 receptor was “below 1 μM”. For the same compound, the CB2 receptor affinity result with CB2 receptor is given as “below 1 μM”.

As usually defined, the inhibition is the share of the control response that was lost under treatment. The Ki is the dissociation constant of the complex between target and ligand, obtained from inhibition or displacement. Read a low Ki as higher affinity. One may read the EC50 as the midpoint of the concentration-response curve. Take `C=C(C)[C@@H]1CCC(C)=C[C@H]1c1c(O)cc(CCCCC)cc1O` [CBD, Cannabidiol]: the inhibition at 10 µM against 5-HT2C, at MOR, against KOR, at D1, against H3 and against ɑ2b was above 50% each time. Moreover, the inhibition at 10 µM against σ2, against ɑ2C and against DOR was above 50% throughout. The inhibitory constant (Ki) at σ2 is above 1 µM. For the same compound, the “inhibition of AmpC β-lactamase” value against AmpC β-lactamase is recorded as “detergent-sensitive inhibition”. In addition, in data set [1], the “inhibition of malate dehydrogenase (MDH)” value was “detergent-sensitive inhibition”. In addition, the “concentration at which detectable colloidal aggregates form (DLS)” value in [2] is on record as “approximately 12.5 μM”. Moreover, the “concentration at which CBD promotes DDI and potentiates the action of many drugs” value in data set [3] is 5 to 10 µM. Also, in the data set on ion channels, the “concentration at which CBD promiscuously affects ion channels” value is 0.1 to 5 µM. In addition, the plasma concentration in data set [4] (humans, single dose of an oral preparation containing 100 mg of CBD) is 36 ng/mL and approximately 100 nM. For the same compound, the volume of distribution in [4] (oromucosal spray formulations) is given as 26,000–31,000 L. For the same compound, the “apparent plasma clearance (CL')” value in [4] (doses 5–20 mg) was 2,500–4,700 L/h; in data set [4] (fed state), 533 L/h. Besides, the chemical stability result in data set [5] is “chemically unstable”. In addition, the EC50 at 5-HT1A receptor was 8 to 16 µM. Moreover, the “number of genes altered in gene expression arrays” value with mice was above 50 genes. For the same compound, the “change in PANSS scores” value in data set [6] is recorded as “clinically-significant reduction”.

Consider `CCCCCc1cc(O)c([C@@H]2C=C(C)CC[C@H]2C(C)C)c(O)c1` [H2-CBD], for which, in the data set with CB1 receptor, the “affinity for the CB1 receptor” value is given as “moderate affinity”.
